Assay results reported in ChEMBL document CHEMBL3751672, “PPAR agonists based on stilbene and its bioisosteres: biological evaluation and docking studies” (Medchemcomm, 2015).
Calls of active or inactive are those of the source. No cut-off for these calls is given here.

Experiments:
Assay type in all cases: cell-based
[1] = target: T1, Peroxisome proliferator-activated receptor alpha (Homo sapiens) (UniProt Q07869); assay: Transactivation of human PPARalpha expressed in HEK293 cells at 150 uM incubated for 18 hrs by dual luciferase reporter gene assay relative to gemfibrozil
T1 sequence (whole entry): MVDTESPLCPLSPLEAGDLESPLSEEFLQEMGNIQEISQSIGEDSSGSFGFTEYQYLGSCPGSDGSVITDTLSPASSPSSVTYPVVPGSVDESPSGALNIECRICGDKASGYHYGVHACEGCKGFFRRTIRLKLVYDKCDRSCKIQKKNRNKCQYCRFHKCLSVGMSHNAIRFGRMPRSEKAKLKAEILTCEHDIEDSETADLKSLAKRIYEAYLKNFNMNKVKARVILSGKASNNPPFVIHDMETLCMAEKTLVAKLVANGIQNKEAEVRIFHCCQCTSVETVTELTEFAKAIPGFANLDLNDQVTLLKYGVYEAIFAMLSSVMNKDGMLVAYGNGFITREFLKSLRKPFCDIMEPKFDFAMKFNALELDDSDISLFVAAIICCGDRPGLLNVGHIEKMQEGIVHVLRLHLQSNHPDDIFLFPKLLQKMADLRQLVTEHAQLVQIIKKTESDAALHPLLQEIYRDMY

[2] = target: T2, Peroxisome proliferator-activated receptor alpha (Homo sapiens, UniProt Q07869); assay: Transactivation of human PPARalpha expressed in HEK293 cells incubated for 18 hrs by dual luciferase reporter gene assay
T2 sequence (Q07869 whole entry): T1 sequence (whole entry)

[3] = target: T1, Peroxisome proliferator-activated receptor alpha (Homo sapiens); assay: Agonist activity at PPARalpha in human HepG2 cells assessed as increase in CPT1A gene expression at 10 uM incubated for 24 hrs by real time quantitative PCR method
[4] = target: T1, Peroxisome proliferator-activated receptor alpha (Homo sapiens); assay: Agonist activity at PPARalpha in human HepG2 cells assessed as increase in CPT1A gene expression at 100 uM incubated for 24 hrs by real time quantitative PCR method relative to gemfibrozil
[5] = target: T1, Peroxisome proliferator-activated receptor alpha (Homo sapiens); assay: Agonist activity at PPARalpha in human HepG2 cells assessed as increase in CPT1A gene expression incubated for 24 hrs by real time quantitative PCR method
[6] = target: T1, Peroxisome proliferator-activated receptor alpha (Homo sapiens); assay: Agonist activity at PPARalpha in human HepG2 cells assessed as increase in CPT1A gene expression at EC50 incubated for 24 hrs by real time quantitative PCR method
[7] = target: T1, Peroxisome proliferator-activated receptor alpha (Homo sapiens); assay: Agonist activity at PPARalpha in human HepG2 cells assessed as increase in CPT1A gene expression at 10 uM incubated for 24 hrs by real time quantitative PCR method relative to gemfibrozil

Compound	Efficacy [1] [%]	EC50 [2] [µM]	other results
CC(C)(CCCOc1ccc(/C=C/c2ccc(Cl)cc2Cl)cc1)C(=O)O	32		
CC(C)(CCCOc1ccc(/C=C/c2ccsc2)cc1)C(=O)O	152	3.8	
CC(C)(CCCOc1ccc(/C=C/c2ccc(C(F)(F)F)cc2)cc1)C(=O)O	205	0.76	Activity [3]: Active; fold change (FC) [4]: 2; fold change (FC) [1]: 2; Activity [5]: Dose-dependent effect
CC(C)c1ccc(/C=C/c2ccc(OCCCC(C)(C)C(=O)O)cc2)cc1	17		
Cc1ccc(C)c(OCCCC(C)(C)C(=O)O)c1			Activity [6]: Active
COc1ccc(/C=C/c2ccc(OCCCC(C)(C)C(=O)O)cc2)cc1	164	28.4	
CC(C)(CCCOc1ccc(/C=C/c2ccc(N)cc2)cc1)C(=O)O	29		
CC(C)(CCCOc1ccc(/C=C/c2ccccc2)cc1)C(=O)O			fold change (FC) [4]: 6; fold change (FC) [1]: 2; Activity [5]: Dose-dependent effect; fold change (FC) [7]: 2
CC(C)(CCCOc1ccc(/C=C/c2ccccc2)cc1Cl)C(=O)O	46		
CC(C)(CCCOc1ccc(/C=C/c2ccncc2)cc1)C(=O)O	115	103	
Cc1ccc(/C=C/c2ccc(OCCCC(C)(C)C(=O)O)cc2)cc1	118	3.3	
CC(C)(CCCOc1ccc(/C=C/c2ccc(Cl)cc2Cl)cc1Cl)C(=O)O	20		
CC(C)(CCCOc1ccc(/C=C/c2ccc(Cl)cc2)cc1)C(=O)O	227	0.8	Activity [3]: Active; fold change (FC) [4]: 2; fold change (FC) [1]: 2; Activity [5]: Dose-dependent effect
CC(C)(CCCOc1ccc(/C=C/c2ccc3ccccc3c2)cc1)C(=O)O	123	90	
CC(C)(CCCOc1ccc(/C=C/c2ccc(C#N)cc2)cc1)C(=O)O	23		
